From publication PMC12081876, “Identification of PTGR2 inhibitors as a new therapeutic strategy for diabetes and obesity” (EMBO Molecular Medicine, 2025)
Positions count from the first letter of the chain named. Where “and” joins values, the source holds several entries; their conditions need not be identical. Identical values can stand only once.

Assays:
[1] = system: PPARγ-null 3T3-L1 clones rescued with mutant mPPARγ (C313A); experiment: Insulin-stimulated glucose uptake in PPARγ-null 3T3-L1 clones rescued with mutant mPPARγ (C313A); type: cell-based, mouse; conditions: for insulin-stimulated glucose uptake, Fig 1P right panel replicates: rescued with mPPARγ C313A
Experimental: Gene editing was performed in 3T3-L1 preadipocytes using the clustered regularly interspaced short palindromic repeats (CRISPR)/Cas9 system. Two single-guide RNAs (sgRNA) (Appendix Table S5) targeting exon 6 of mouse Pparγ were designed using a web-based design tool (http://crispr.mit.edu/). These oligonucleotides were cloned into the pSurrogate reporter and pAll-Cas9.Ppuro vector obtained from Academia Sinica, Taiwan. The pSurrogate reporter contains an EGFP and an out-of-frame mCherry downstream of the sgRNA; the pAll-Cas9.Ppuro vector expresses Cas9 nuclease and sgRNA. Once a double-strand breaking at the target site in pSurrogate reporter plasmid was created by Cas9, insertions and deletions (indels) could be introduced at the cleaved site. The indels cause frameshifts and result in the expression of the mCherry gene. 3T3-L1 preadipocytes were co-transfected with pSurrogate reporter and pAll-Cas9.Ppuro vectors at 80-90% confluency using PolyJet™ transfection reagent (cat. no. SL100688, SignaGen Laboratories, USA). Two days after transfection, EGFP/mCherry double-positive cells were enriched by fluorescent-activated cell sorting. Single cells were isolated and expanded. The genomic DNA was amplified by PCR and sequenced to confirm the knockout cell lines. The primer sequences are shown in Appendix Table S5.
The mPPARγ C313A DNA sequence was amplified from pCMV6-Pparg C313A and subcloned into the pLVX-IRES-Neo vector with XhoI/NotI restriction sites. The lentiviral expression plasmids, pMD.G, and pCMVΔR8.91 (RNAi Core, Academia Sinica, Taiwan), were co-transfected into HEK293T cells. […] HSP70 was probed with an anti-HSP70 antibody (cat. no. ab45133, Abcam) as a loading control.
Differentiated 3T3-L1 cells were starved with serum-free DMEM containing 0.2% BSA (cat. no. A9647, Sigma-Aldrich). […] Uptake of 2DG was terminated by rapidly removing medium and washing with ice-cold PBS three times. Cells were lysed with 0.1% SDS, and the radioactivity was measured using a liquid scintillation counter. Insulin-mediated glucose uptake was calculated by subtracting insulin-treated glucose uptake with basal glucose uptake.

wild-type mPPARγ = molecular target: T1, wild-type mPPARγ (Mus musculus, UniProt P37238); experiment: PPRE reporter assay in HEK293T cells, wild-type mPPARγ; type: cell-based, murine; parameters: key to PPRE reporter activity, Fig 1M replicates: luciferase activity normalized to TK reporter signal; conditions: for PPRE reporter activity, Fig 1M replicates: PPARg WT
T1 construct: host or cells: HEK293T
T1 sequence (P37238 1-505): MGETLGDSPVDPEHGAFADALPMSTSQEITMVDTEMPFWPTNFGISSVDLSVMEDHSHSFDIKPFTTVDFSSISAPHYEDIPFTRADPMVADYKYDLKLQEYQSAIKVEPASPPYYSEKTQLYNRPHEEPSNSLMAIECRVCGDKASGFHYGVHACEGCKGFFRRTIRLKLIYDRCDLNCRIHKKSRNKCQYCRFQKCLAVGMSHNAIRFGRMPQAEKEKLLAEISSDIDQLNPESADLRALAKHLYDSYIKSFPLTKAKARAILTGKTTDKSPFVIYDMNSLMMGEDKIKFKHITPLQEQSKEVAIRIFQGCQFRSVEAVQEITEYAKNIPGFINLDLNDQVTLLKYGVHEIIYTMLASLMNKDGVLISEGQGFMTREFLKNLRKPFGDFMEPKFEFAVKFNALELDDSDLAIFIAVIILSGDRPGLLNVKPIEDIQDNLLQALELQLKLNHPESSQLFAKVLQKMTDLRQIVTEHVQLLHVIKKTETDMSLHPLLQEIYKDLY
Experimental: (§1) For PPRE reporter assay, HEK293T cells were seeded in 24-well plates at 1 × 10^5 cells/well. […] The luciferase activity was measured by Luc-Pair™ Duo-Luciferase HS Assay Kit (cat. no. LF600, Promega, USA) and normalized to the TK reporter signal.

mPPARγ C313A = molecular target: T2, mPPARγ C313A (Mus musculus, UniProt P37238, C313A); experiment: PPRE reporter assay in HEK293T cells, C313A mutant mPPARγ; type: cell-based, murine; parameters: key to PPRE reporter activity, Fig 1M replicates: luciferase activity normalized to TK reporter signal; conditions: for PPRE reporter activity, Fig 1M replicates: PPARg C313A
T2 construct: host or cells: HEK293T
T2 sequence (P37238 1-505 C313A): T1 sequence (P37238 1-505) with C313A
Experimental: as §1

3T3-L1 adipocytes = experiment: Intracellular 15-keto-PGE2 content of 3T3-L1 cells (LC-MS/MS); type: cell-based, mouse
Experimental: The lysate was centrifuged at 300 × g for 5 min to remove cellular debris. The supernatant was transferred to a new tube. The C18 SPE cartridge was sequentially activated with 2 mL methanol and 2 mL ddH2O. The lower-layer sample was transferred to the C18 SPE cartridge. Once the lysate passed the cartridge, the SPE cartridge was washed with 2 mL 15% methanol and 5 mL ddH2O. The sample was then eluted with 5 mL HPLC-degree methanol and aliquoted into new 2-mL tubes. The elute was air-dried using a SpeedVac system and stored at −80 °C. The dried samples were reconstituted with 60 μL methanol before analysis.

hPTGR2 = hPTGR2 (Homo sapiens, UniProt Q8N8N7); experiment: Enzyme kinetics (Lineweaver–Burk) of hPTGR2 with 15-keto-PGE2; type: biochemical; parameters: made in house
hPTGR2, sequence (Q8N8N7 whole entry): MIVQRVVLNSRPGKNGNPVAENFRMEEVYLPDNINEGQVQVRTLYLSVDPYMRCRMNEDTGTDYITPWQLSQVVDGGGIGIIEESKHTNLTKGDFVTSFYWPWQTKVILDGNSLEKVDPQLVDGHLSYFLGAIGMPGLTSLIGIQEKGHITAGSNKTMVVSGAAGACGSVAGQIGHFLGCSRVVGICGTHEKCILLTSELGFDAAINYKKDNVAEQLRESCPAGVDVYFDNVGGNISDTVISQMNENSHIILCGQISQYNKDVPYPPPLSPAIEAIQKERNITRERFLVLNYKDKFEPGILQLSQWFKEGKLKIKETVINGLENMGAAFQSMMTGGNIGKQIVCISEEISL

## CCCCCC(=O)CC[C@H]1[C@H](O)CC(=O)[C@@H]1C/C=C\CCCC(=O)O [13,14-dihydro-15-keto-PGE2]
[1]; 1314-dihydro-15kPGE2 5
  insulin-stimulated glucose uptake, Fig 1P right panel replicates: 1.243 and 2.598 and 0.703
wild-type mPPARγ; 1314dh-15kPGE2 5uM
  PPRE reporter activity, Fig 1M replicates: 0.8192 and 0.7939 and 0.9277
wild-type mPPARγ; 1314dh-15kPGE2 10uM
  PPRE reporter activity, Fig 1M replicates: 1.0416 and 0.7874 and 1.0502
mPPARγ C313A; 1314dh-15kPGE2 5uM
  PPRE reporter activity, Fig 1M replicates: 1.0835 and 0.6291 and 0.9127
mPPARγ C313A; 1314dh-15kPGE2 10uM
  PPRE reporter activity, Fig 1M replicates: 0.8254 and 0.8511 and 0.9733

## CCCCCC(=O)/C=C/[C@H]1[C@H](O)CC(=O)[C@@H]1C/C=C\CCCC(=O)O [15-keto-PGE2, 15-keto-prostaglandin E2]
3T3-L1 adipocytes; exogenously added 15-keto-PGE2 10–20 μM, 3T3-L1 adipocytes
  increase of intracellular 15-keto-PGE2 levels: 1.25 to 1.78 fold
[1]; 15kPGE2 1
  insulin-stimulated glucose uptake, Fig 1P right panel replicates: 0.9792 and 1.801 and 3.6878 and 1.466
[1]; 15kPGE2 5
  insulin-stimulated glucose uptake, Fig 1P right panel replicates: 0.4664 and 1.615 and 2.026 and 0.6338
[1]; 15kPGE2 10
  insulin-stimulated glucose uptake, Fig 1P right panel replicates: 0.2762 and 1.684 and 2.97 and 1.874
[1]; clone #1296
  insulin-stimulated glucose uptake, PPARγ-null clone rescued with mutant mPPARγ (C313A): not when rescued with mutant mPPARγ (C313A)
hPTGR2; read-out: Km between 15-keto-PGE2 and hPTGR2, without BPRPT0245
  Km: 29.1 ± 0.77 µM
wild-type mPPARγ; 15kPGE2 1uM
  PPRE reporter activity, Fig 1M replicates: 0.8257 and 0.8644 and 0.9986
wild-type mPPARγ; 15kPGE2 5uM
  PPRE reporter activity, Fig 1M replicates: 1.6663 and 1.771 and 1.8768
wild-type mPPARγ; 15kPGE2 10uM
  PPRE reporter activity, Fig 1M replicates: 2.316 and 1.9846 and 1.9282
wild-type mPPARγ; HEK293T
  PPRE reporter activity, wild-type mPPARγ: dose-dependently increases the reporter activity of PPARγ
mPPARγ C313A; 15kPGE2 1uM
  PPRE reporter activity, Fig 1M replicates: 1.1721 and 1.0341 and 1.1068
mPPARγ C313A; 15kPGE2 5uM
  PPRE reporter activity, Fig 1M replicates: 0.9678 and 0.853 and 0.9258
mPPARγ C313A; 15kPGE2 10uM
  PPRE reporter activity, Fig 1M replicates: 0.6267 and 0.6796 and 0.8917
mPPARγ C313A; HEK293T
  PPRE reporter activity, mutant mPPARγ (C313A): abolished

## Cc1[nH]c2nc(C(C)N3CCN(c4ccccc4)CC3)nn2c(=O)c1Cc1ccc(F)cc1 (centres unmarked) [BPRPT0245]
3T3-L1 adipocytes; differentiated 3T3-L1 adipocytes treated with BPRPT0245
  intracellular 15-keto-PGE2 concentrations: increased intracellular 15-keto-PGE2 concentrations in a dose-dependent manner
hPTGR2; BPRPT0245 50 nM
  mode of inhibition (Lineweaver–Burk plot): competitive hPTGR2 inhibitor
hPTGR2; BPRPT0245 50 nM, 15-keto-PGE2(um) 0.01
  Lineweaver-Burk plot value, average (Figure 5H): 0.05189
hPTGR2; BPRPT0245 50 nM, 15-keto-PGE2(um) 0.0142857
  Lineweaver-Burk plot value, average (Figure 5H): 0.06506
hPTGR2; BPRPT0245 50 nM, 15-keto-PGE2(um) 0.02
  Lineweaver-Burk plot value, average (Figure 5H): 0.06763
hPTGR2; BPRPT0245 50 nM, 15-keto-PGE2(um) 0.025
  Lineweaver-Burk plot value, average (Figure 5H): 0.07832
hPTGR2; BPRPT0245 50 nM, 15-keto-PGE2(um) 0.0333333
  Lineweaver-Burk plot value, average (Figure 5H): 0.1063
hPTGR2; BPRPT0245 50 nM, 15-keto-PGE2(um) 0.05
  Lineweaver-Burk plot value, average (Figure 5H): 0.1377
hPTGR2; BPRPT0245 50 nM, 15-keto-PGE2(um) 0.1
  Lineweaver-Burk plot value, average (Figure 5H): 0.2333
hPTGR2; with BPRPT0245 50 nM
  Vmax (change on addition of inhibitor): remained unchanged
